Counter-ions that a name gives are not always drawn.
Target: Autotaxin (Homo sapiens (Human), UniProt Q13822)
Assay: Autotaxin LPC Cascade Assay
Assay type: biochemical
Conditions: Autotaxin 5 nM, LPC 100 μM, choline oxidase/HRP/Ampliflu Red fluorescence read-out, 2% DMSO, RT; read-out: IC50 ATX Activity
How it was run: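 Choline liberated from LPC by autotaxin during 1 h, after a 10-min RT compound preincubation, was converted through choline oxidase/HRP to a fluorescent Ampliflu Red product.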

Which IC50 does the source give for `CN1C(=O)N(c2ccc3[nH]ncc3c2)C2(CCN(C(=O)C3(NC(=O)c4cc(C(F)(F)F)ccc4F)CC3)CC2)C1=O` [Example 71, N-(1-(1-(1H-Indazol-5-yl)-3-methyl-2,4-dioxo-1,3,8-triazaspiro[4.5]decane-8-carbonyl)cyclopropyl)-2-fluoro-5-(trifluoromethyl)benzamide] here?
Its IC50 is no less than 1000 nM.

Which IC50 does the source give for `C[C@@H](NC(=O)c1cc(C(F)(F)F)ccc1F)C(=O)N1CCC2(CC1)C(=O)N(C)C(=O)N2c1ccc2[nH]ncc2c1` [Example 72, (R)—N-(1-(1-(1H-Indazol-5-yl)-3-methyl-2,4-dioxo-1,3,8-triazaspiro[4.5]decan-8-yl)-1-oxopropan-2-yl)-2-fluoro-5-(trifluoromethyl)benzamide] here?
Its IC50 is no less than 1000 nM.

How did the IC50 turn out when `CN1C(=O)N(c2ccc3[nH]ncc3c2)C2(CCN(C(=O)C(C)(C)NC(=O)c3cc(C(F)(F)F)ccc3F)CC2)C1=O` [Example 74, N-(1-(1-(1H-Indazol-5-yl)-3-methyl-2,4-dioxo-1,3,8-triazaspiro[4.5]decan-8-yl)-2-methyl-1-oxopropan-2-yl)-2-fluoro-5-(trifluoromethyl)benzamide] was run?
The IC50 was no less than 1000 nM.

Which IC50 does the source give for `CC(C)[C@@H](NC(=O)c1cc(C(F)(F)F)ccc1F)C(=O)N1CCC2(CC1)C(=O)N(C)C(=O)N2CC1CC1` [Example 75, (R)—N-(1-(1-(Cyclopropylmethyl)-3-methyl-2,4-dioxo-1,3,8-triazaspiro[4.5]decan-8-yl)-3-methyl-1-oxobutan-2-yl)-2-fluoro-5-(trifluoromethyl)benzamide] here?
Its IC50 is no less than 1000 nM.

`CC(C)[C@@H](NC(=O)c1cc(C(F)(F)F)ccc1F)C(=O)N1CCC2(CC1)C(=O)N(C)C(=O)N2C1CC1` [Example 76, (R)—N-(1-(1-Cyclopropyl-3-methyl-2,4-dioxo-1,3,8-triazaspiro[4.5]decan-8-yl)-3-methyl-1-oxobutan-2-yl)-2-fluoro-5-(trifluoromethyl)benzamide] was tested. Which IC50 did it give?
Its IC50 is 500 to 1000 nM.

`CC(C)[C@@H](NC(=O)c1cc(C(F)(F)F)ccc1F)C(=O)N1CCC2(CC1)C(=O)N(C)C(=O)N2C1CCOCC1` [Example 77, (R)-2-Fluoro-N-(3-methyl-1-(3-methyl-2,4-dioxo-1-(tetrahydro-2H-pyran-4-yl)-1,3,8-triazaspiro[4.5]decan-8-yl)-1-oxobutan-2-yl)-5-(trifluoromethyl)benzamide] was tested. Which IC50 did it give?
The IC50 was 500 to 1000 nM.

How did the IC50 turn out when `CC(C)[C@@H](NC(=O)c1cc(C(F)(F)F)ccc1F)C(=O)N1CCC2(CC1)C(=O)N(C)C(=O)N2[C@@H](C)c1ccccc1` [Example 78, 2-Fluoro-N—((R)-3-methyl-1-(3-methyl-2,4-dioxo-1-((S)-1-phenylethyl)-1,3,8-triazaspiro[4.5]decan-8-yl)-1-oxobutan-2-yl)-5-(trifluoromethyl)benzamide] was run?
The IC50 was no less than 1000 nM.

For `CC(C)[C@@H](NC(=O)c1cc(C(F)(F)F)ccc1F)C(=O)N1CCC2(CC1)C(=O)N(C)C(=O)N2CC1CCOCC1` [Example 79, (R)-2-Fluoro-N-(3-methyl-1-(3-methyl-2,4-dioxo-1-((tetrahydro-2H-pyran-4-yl)methyl)-1,3,8-triazaspiro[4.5]decan-8-yl)-1-oxobutan-2-yl)-5-(trifluoromethyl)benzamide], which IC50 is on record?
The IC50 was 500 to 1000 nM.

`CC(C)[C@@H](NC(=O)c1cc(C(F)(F)F)ccc1F)C(=O)N1CCC2(CC1)C(=O)N(C)C(=O)N2[C@H](C)c1ccccc1` [Example 80, 2-Fluoro-N—((R)-3-methyl-1-(3-methyl-2,4-dioxo-1-((R)-1-phenylethyl)-1,3,8-triazaspiro[4.5]decan-8-yl)-1-oxobutan-2-yl)-5-(trifluoromethyl)benzamide] was tested. Which IC50 did it give?
Its IC50 is no less than 1000 nM.

With `CC(C)[C@@H](NC(=O)c1cc(C(F)(F)F)ccc1F)C(=O)N1CCC2(CC1)C(=O)N(C)C(=O)N2c1ccc(OCC2CNC2)cc1` [Example 81, (R)—N-(1-(1-(4-(Azetidin-3-ylmethoxy)phenyl)-3-methyl-2,4-dioxo-1,3,8-triazaspiro[4.5]decan-8-yl)-3-methyl-1-oxobutan-2-yl)-2-fluoro-5-(trifluoromethyl)benzamide trifluoroacetic Acid Salt] as the molecule, how does the IC50 read?
Its IC50 is no less than 1000 nM.

With `CC(C)[C@@H](NC(=O)c1cc(C(F)(F)F)ccc1F)C(=O)N1CCC2(CC1)C(=O)N(C)C(=O)N2c1ccc(OCC#N)cc1` [Example 82, (R)—N-(1-(1-(4-(cyanomethoxy)phenyl)-3-methyl-2,4-dioxo-1,3,8-triazaspiro[4.5]decan-8-yl)-3-methyl-1-oxobutan-2-yl)-2-fluoro-5-(trifluoromethyl)benzamide] as the molecule, how does the IC50 read?
Its IC50 is 500 to 1000 nM.

For `CC(C)[C@@H](NC(=O)c1cc(C(F)(F)F)ccc1F)C(=O)N1CCC2(CC1)C(=O)N(C)C(=O)N2c1ccc(OCC2COC2)cc1` [Example 83, (R)-2-Fluoro-N-(3-methyl-1-(3-methyl-1-(4-(oxetan-3-ylmethoxy)phenyl)-2,4-dioxo-1,3,8-triazaspiro[4.5]decan-8-yl)-1-oxobutan-2-yl)-5-(trifluoromethyl)benzamide], which IC50 is on record?
Its IC50 is less than 500 nM.

How did the IC50 turn out when `CC(C)[C@@H](NC(=O)c1cc(C(F)(F)F)ccc1F)C(=O)N1CCC2(CC1)C(=O)N(C)C(=O)N2c1ccc(OCCO)cc1` [Example 84, (R)-2-Fluoro-N-(1-(1-(4-(2-hydroxyethoxy)phenyl)-3-methyl-2,4-dioxo-1,3,8-triazaspiro[4.5]decan-8-yl)-3-methyl-1-oxobutan-2-yl)-5-(trifluoromethyl)benzamide] was run?
Its IC50 is less than 500 nM.

How did the IC50 turn out when `CC(C)[C@@H](NC(=O)c1cc(C(F)(F)F)ccc1F)C(=O)N1CCC2(CC1)C(=O)N(C)C(=O)N2c1ccc(NC2CNC2)cc1` [Example 86, (R)—N-(1-(1-(4-(Azetidin-3-ylamino)phenyl)-3-methyl-2,4-dioxo-1,3,8-triazaspiro[4.5]decan-8-yl)-3-methyl-1-oxobutan-2-yl)-2-fluoro-5-(trifluoromethyl)benzamide trifluoroacetic Acid Salt] was run?
The IC50 was no less than 1000 nM.

Which IC50 does the source give for `CC(C)[C@@H](NC(=O)c1cc(C(F)(F)F)ccc1F)C(=O)N1CCC2(CC1)C(=O)N(C)C(=O)N2c1ccc(NC2COC2)cc1` [Example 87, (R)-2-Fluoro-N-(3-methyl-1-(3-methyl-1-(4-(oxetan-3-ylamino)phenyl)-2,4-dioxo-1,3,8-triazaspiro[4.5]decan-8-yl)-1-oxobutan-2-yl)-5-(trifluoromethyl)benzamide] here?
Its IC50 is no less than 1000 nM.

Which IC50 does the source give for `CC(C)[C@@H](NC(=O)c1cc(C(F)(F)F)ccc1F)C(=O)N1CCC2(CC1)C(=O)N(C)C(=O)N2Cc1ccc(C#N)cc1` [Example 88, (R)—N-(1-(1-(4-Cyanobenzyl)-3-methyl-2,4-dioxo-1,3,8-triazaspiro[4.5]decan-8-yl)-3-methyl-1-oxobutan-2-yl)-2-fluoro-5-(trifluoromethyl)benzamide] here?
The IC50 was less than 500 nM.

Which IC50 does the source give for `CC(C)[C@@H](NC(=O)c1cc(C(F)(F)F)ccc1F)C(=O)N1CCC2(CC1)C(=O)N(C)C(=O)N2Cc1ccccc1` [Example 89, (R)—N-(1-(1-Benzyl-3-methyl-2,4-dioxo-1,3,8-triazaspiro[4.5]decan-8-yl)-3-methyl-1-oxobutan-2-yl)-2-fluoro-5-(trifluoromethyl)benzamide] here?
The IC50 was less than 500 nM.

With `CC(C)[C@@H](NC(=O)c1cc(C(F)(F)F)ccc1F)C(=O)N1CCC2(CC1)C(=O)N(C)C(=O)N2Cc1ccc(F)cc1` [Example 90, (R)-2-Fluoro-N-(1-(1-(4-fluorobenzyl)-3-methyl-2,4-dioxo-1,3,8-triazaspiro[4.5]decan-8-yl)-3-methyl-1-oxobutan-2-yl)-5-(trifluoromethyl)benzamide] as the molecule, how does the IC50 read?
Its IC50 is less than 500 nM.

`COc1ccc(CN2C(=O)N(C)C(=O)C23CCN(C(=O)[C@H](NC(=O)c2cc(C(F)(F)F)ccc2F)C(C)C)CC3)cc1` [Example 91, (R)-2-Fluoro-N-(1-(1-(4-methoxybenzyl)-3-methyl-2,4-dioxo-1,3,8-triazaspiro[4.5]decan-8-yl)-3-methyl-1-oxobutan-2-yl)-5-(trifluoromethyl)benzamide] was tested. Which IC50 did it give?
The IC50 was less than 500 nM.

With `CC(C)[C@@H](NC(=O)c1cc(C(F)(F)F)ccc1F)C(=O)N1CCC2(CC1)C(=O)N(C)C(=O)N2C(C)c1ccccc1` (stereo partly drawn) [Example 92, 2-Fluoro-N-((2R)-3-methyl-1-(3-methyl-2,4-dioxo-1-(1-phenylethyl)-1,3,8-triazaspiro[4.5]decan-8-yl)-1-oxobutan-2-yl)-5-(trifluoromethyl)benzamide] as the molecule, how does the IC50 read?
Its IC50 is 500 to 1000 nM.

`CC(C)[C@@H](NC(=O)c1cc(C(F)(F)F)ccc1F)C(=O)N1CCC2(CC1)C(=O)N(C)C(=O)N2Cc1ccc(S(C)(=O)=O)cc1` [Example 93, (R)-2-Fluoro-N-(3-methyl-1-(3-methyl-1-(4-(methylsulfonyl)benzyl)-2,4-dioxo-1,3,8-triazaspiro[4.5]decan-8-yl)-1-oxobutan-2-yl)-5-(trifluoromethyl)benzamide] was tested. Which IC50 did it give?
Its IC50 is no less than 1000 nM.

`COc1cc(CN2C(=O)N(C)C(=O)C23CCN(C(=O)[C@H](NC(=O)c2cc(C(F)(F)F)ccc2F)C(C)C)CC3)ccn1` [Example 94, (R)-2-Fluoro-N-(1-(1-((2-methoxypyridin-4-yl)methyl)-3-methyl-2,4-dioxo-1,3,8-triazaspiro[4.5]decan-8-yl)-3-methyl-1-oxobutan-2-yl)-5-(trifluoromethyl)benzamide] was tested. Which IC50 did it give?
The IC50 was less than 500 nM.

`Cc1cc(CN2C(=O)N(C)C(=O)C23CCN(C(=O)[C@H](NC(=O)c2cc(C(F)(F)F)ccc2F)C(C)C)CC3)ccn1` [Example 95, (R)-2-Fluoro-N-(3-methyl-1-(3-methyl-1-((2-methylpyridin-4-yl)methyl)-2,4-dioxo-1,3,8-triazaspiro[4.5]decan-8-yl)-1-oxobutan-2-yl)-5-(trifluoromethyl)benzamide] was tested. Which IC50 did it give?
The IC50 was 500 to 1000 nM.

For `CC(C)[C@@H](NC(=O)c1cc(C(F)(F)F)ccc1F)C(=O)N1CCC2(CC1)C(=O)N(C)C(=O)N2Cc1ccc2c(c1)OCCO2` [Example 96, (R)—N-(1-(1-((2,3-Dihydrobenzo[b][1,4]dioxin-6-yl)methyl)-3-methyl-2,4-dioxo-1,3,8-triazaspiro[4.5]decan-8-yl)-3-methyl-1-oxobutan-2-yl)-2-fluoro-5-(trifluoromethyl)benzamide], which IC50 is on record?
The IC50 was less than 500 nM.

How did the IC50 turn out when `COc1ccc(CN2C(=O)N(C)C(=O)C23CCN(C(=O)[C@H](NC(=O)c2cc(C(F)(F)F)ccc2F)C(C)C)CC3)cn1` [Example 97, (R)-2-Fluoro-N-(1-(1-((6-methoxypyridin-3-yl)methyl)-3-methyl-2,4-dioxo-1,3,8-triazaspiro[4.5]decan-8-yl)-3-methyl-1-oxobutan-2-yl)-5-(trifluoromethyl)benzamide] was run?
Its IC50 is less than 500 nM.
